# Article PMC10686834, “Targeting myeloid chemotaxis to reverse prostate cancer therapy resistance” (Nature, 2023)
# Where two headings read alike, the source gives them in different places.
# What was measured:
# [1] = design: method as in AZD5069 Investigator Brochure (IB); conditions: ref AZD5069 Investigator Brochure (IB); cited from earlier work
# [2] = tested on: patients with chronic obstructive pulmonary disease (COPD); conditions: cited from earlier work
# [3] = tested on: healthy volunteers; design: method as in AZD5069 Investigator Brochure (IB); conditions: ref AZD5069 Investigator Brochure (IB), cited from earlier work
# [4] = tested on: CYP2B6; design: method as in AZD5069 Investigator Brochure (IB); conditions: at concentrations of up to 100 μmol/L; ref AZD5069 Investigator Brochure (IB); cited from earlier work
# [5] = tested on: monkey; conditions: in vivo; cited from earlier work
# [6] = tested on: P-glycoprotein (P-gp); design: method as in AZD5069 Investigator Brochure (IB); conditions: at concentrations of up to 100 μmol/L; ref AZD5069 Investigator Brochure (IB); cited from earlier work
# [7] = tested on: CD11b+HLA-DRloCD15+CD14− myeloid cells; assay: Hyperplex IF of paired pre- and on-treatment mCRPC biopsies: intratumour immune cell density; type: in vivo, human
# Method: Specific pharmacokinetic collection time points are listed in the study protocol. Pharmacokinetic parameters were calculated using non-compartmental analysis (Phoenix v.8.1, Certara). Fresh tumour needle core biopsies from matched disease sites (lymph node, bone and soft tissue) were collected at baseline (within 1 week of treatment commencement) and approximately 2 weeks after starting AZD5069 in patients when this was deemed safe and feasible. Tumour biopsies were obtained from 18 patients under computerized tomography or ultrasound guidance by an experienced interventional radiologist (N.T.). […] One patient had only a baseline tumour biopsy. Two patients underwent on-treatment biopsies after 4 weeks. Immediately after biopsy, tumour samples were immersed in 10% neutral-buffered formalin for 24 hours. Samples were processed through paraffin wax for histologic examination. […] Baseline FFPE samples were analysed by IHC, and pre- and post-treatment FFPE biopsies were analysed by IF and targeted RNA profiling using HTG EdgeSeq. […]
# The hyperplex IF protocol template was generated using the COMET Control Software (v.0.70.0.1, Lunaphore Technologies), and reagents were loaded onto the device to carry out the sequential IF (seqIF) protocol. […] Nuclear signal was detected with DAPI (No. 62248, dilution 1:1,000, Thermo Fisher Scientific) by dynamic incubation of 2 min. […]
# [8] = tested on: CYP2A6; design: method as in AZD5069 Investigator Brochure (IB); conditions: at concentrations of up to 100 μmol/L; ref AZD5069 Investigator Brochure (IB); cited from earlier work
# [9] = tested on: patients with bronchiectasis; conditions: cited from earlier work
# [10] = tested on: monkey; conditions: in vivo; cited from earlier work; remark: listed apart in the source
# [11] = tested on: CYP2D6; design: method as in AZD5069 Investigator Brochure (IB); conditions: at concentrations of up to 100 μmol/L; ref AZD5069 Investigator Brochure (IB); cited from earlier work
# [12] = tested on: patients with persistent uncontrolled asthma; design: method as in AZD5069 Investigator Brochure (IB); conditions: asthma study NCT01704495, 161 patients receiving 45 mg BD, 6-month safety analysis set; ref AZD5069 Investigator Brochure (IB); cited from earlier work
# [13] = tested on: CACO-2 cells; design: method as in AZD5069 Investigator Brochure (IB); conditions: at 0.85 μmol/L, ref AZD5069 Investigator Brochure (IB); cited from earlier work
# [14] = bronchiectasis study NCT01255592, on AZD5069, ref AZD5069 Investigator Brochure (IB)
smiles,measurement,setting,value
C[C@@H](Oc1cc(NS(=O)(=O)N2CCC2)nc(SCc2cccc(F)c2F)n1)[C@@H](O)CO [AZD5069],phototoxic potential,[1],low risk for phototoxic potential
same,adverse events (AEs),"[2]; 50mg AZD5069, ref (18)",33%
same,"treatment discontinuation for decrease in neutrophils (<1.0 × 10^9/L in two blood samples, 24 hours apart)","[2]; 50mg AZD5069, ref (18)",10%
same,adverse events (AEs),"[2]; 80mg AZD5069, ref (18)",21%
same,"treatment discontinuation for decrease in neutrophils (<1.0 × 10^9/L in two blood samples, 24 hours apart)","[2]; 80mg AZD5069, ref (18)",4%
same,AEs leading to discontinuation of treatment,"[2]; AZD5069 50 mg group, ref (18)",17%
same,patients discontinued from the study due to decreased neutrophil count,"[2]; AZD5069 50 mg group, ref (18)",3
same,AEs leading to discontinuation of treatment,"[2]; AZD5069 80 mg group, ref (18)",7%
same,average decrease of blood neutrophil counts from baseline,"[2]; AZD5069 80 mg group, ref (18)",13-36%
same,patients discontinued from the study due to decreased neutrophil count,"[2]; AZD5069 80 mg group, ref (18)",1
same,adverse effects considered to be related to treatment,[3]; 202 healthy volunteers,no clinically significant adverse effects
same,doses with a reduction in blood neutrophil counts,[3]; healthy volunteers,≥ 5.45 mg
same,inhibition of CYP2B6,[4],not an inhibitor
same,NOAEL,[5],262.5 mg/kg BD
same,inhibition of P-glycoprotein (P-gp),[6],not an inhibitor
same,density of other immune cells in CRPC biopsies,[7],did not significantly alter the density of other immune cells
same,density of CD11b+HLA-DRloCD15+CD14− myeloid cells in CRPC biopsies,"[7]; most patients treated with AZD5069 >40 mg BD, approximately 2 weeks after starting treatment",reduced the density
same,inhibition of CYP2A6,[8],not an inhibitor
same,mean reduction in blood neutrophils,"[9]; bronchiectasis study NCT01255592, 80 mg BD, ref AZD5069 Investigator Brochure (IB)",approximately 16%
same,reduction in sputum neutrophils compared with placebo,"[9]; bronchiectasis study NCT01255592, after 4 weeks’ treatment, ref AZD5069 Investigator Brochure (IB)",69%
same,patients reporting adverse events (AEs),[9]; [14],23 of 26
same,patients who withdrew because of AEs,[9]; [14],5
same,infections reported,[9]; in vivo,34.6%
same,tolerated single doses (maximum feasible dose),[10],≤ 350 mg/kg BD
same,inhibition of CYP2D6,[11],not an inhibitor
same,patients who discontinued the drug due to neutrophil counts 1x10^9/L,[12],4
same,efflux ratio,[13],57
